Activity calls are given as the source filed them.
Assays:
[1] = molecular target: T1, RNA-binding protein pos-1 (Caenorhabditis elegans, UniProt G5EF15); assay: inhibitors of POS-1/mex-3 RNA binding, dose response, biochemical, fluorescence polarization (AID 1964);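 note: purified POS-1 fused to maltose binding protein made in E. coli; potency of compounds blocking POS-1 binding to fluorescent RNA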
T1 sequence (G5EF15 whole entry): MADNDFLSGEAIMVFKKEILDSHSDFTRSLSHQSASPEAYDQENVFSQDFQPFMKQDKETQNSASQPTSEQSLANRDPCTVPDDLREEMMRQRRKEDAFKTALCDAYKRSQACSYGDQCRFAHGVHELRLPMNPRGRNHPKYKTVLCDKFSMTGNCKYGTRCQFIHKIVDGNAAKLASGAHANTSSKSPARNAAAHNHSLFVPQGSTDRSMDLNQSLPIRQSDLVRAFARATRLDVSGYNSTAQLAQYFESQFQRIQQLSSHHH

[2] = molecular target: T2, Zinc finger protein mex-5 (Caenorhabditis elegans, UniProt Q9XUB2); assay: MEX-5/TCR-2 RNA interaction inhibitors, dose response, biochemical, C. elegans, fluorescence polarization (AID 1960)
T2 sequence (Q9XUB2 whole entry): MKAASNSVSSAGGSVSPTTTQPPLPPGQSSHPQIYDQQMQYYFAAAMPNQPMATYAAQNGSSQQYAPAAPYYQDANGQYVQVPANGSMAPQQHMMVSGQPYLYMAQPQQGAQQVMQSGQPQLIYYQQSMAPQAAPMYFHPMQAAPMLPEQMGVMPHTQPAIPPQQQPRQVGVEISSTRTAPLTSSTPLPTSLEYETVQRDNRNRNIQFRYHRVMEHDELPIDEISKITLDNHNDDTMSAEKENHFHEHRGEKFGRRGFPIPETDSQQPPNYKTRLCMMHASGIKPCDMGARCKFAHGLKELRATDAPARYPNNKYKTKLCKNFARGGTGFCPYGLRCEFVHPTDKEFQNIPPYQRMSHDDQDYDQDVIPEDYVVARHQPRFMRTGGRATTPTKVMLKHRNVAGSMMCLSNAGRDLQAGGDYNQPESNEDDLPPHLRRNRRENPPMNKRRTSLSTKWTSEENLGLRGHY

[3] = Luminescence Cell-Based Dose Retest to Confirm Inhibitors of Cancer Stem Cells. [Related pubchem assays (depositor defined):AID2717, AID2721]; assay type: functional; details: Homo sapiens
[4] = HeLa cell cytotoxicity, dose response, cytotoxicity control for MgcRacGAP inhibitor project (AID 624300); assay type: functional
[5] = molecular target: T3, Rac GTPase-activating protein 1 (Homo sapiens, UniProt Q9H0H5); assay: MgcRacGAP GTPase-activating activity inhibitors, confirmation, biochemical, ADP Hunter fluorescence, primary and confirmatory (AID 624330); assay type: functional
T3 sequence (Q9H0H5 whole entry): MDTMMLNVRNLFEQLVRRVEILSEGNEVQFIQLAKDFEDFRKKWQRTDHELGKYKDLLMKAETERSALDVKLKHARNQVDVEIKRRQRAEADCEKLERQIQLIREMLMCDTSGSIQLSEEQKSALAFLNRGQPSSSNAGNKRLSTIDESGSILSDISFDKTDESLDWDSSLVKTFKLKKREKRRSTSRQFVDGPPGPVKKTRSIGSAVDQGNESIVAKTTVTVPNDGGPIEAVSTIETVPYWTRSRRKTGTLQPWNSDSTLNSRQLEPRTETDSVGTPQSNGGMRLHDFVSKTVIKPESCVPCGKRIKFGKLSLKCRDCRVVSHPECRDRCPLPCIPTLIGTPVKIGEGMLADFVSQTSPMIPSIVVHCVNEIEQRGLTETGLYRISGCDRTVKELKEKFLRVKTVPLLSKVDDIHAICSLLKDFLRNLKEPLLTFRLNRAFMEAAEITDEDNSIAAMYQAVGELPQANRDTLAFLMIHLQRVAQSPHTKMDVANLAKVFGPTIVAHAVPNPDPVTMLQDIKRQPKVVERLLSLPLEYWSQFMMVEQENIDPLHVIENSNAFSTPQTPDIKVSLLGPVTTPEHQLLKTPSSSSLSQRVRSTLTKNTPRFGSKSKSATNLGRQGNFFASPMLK

[6] = molecular target: T4, Sentrin-specific protease 8 (Homo sapiens, UniProt Q96LD8); assay type: functional
T4 sequence (Q96LD8 whole entry): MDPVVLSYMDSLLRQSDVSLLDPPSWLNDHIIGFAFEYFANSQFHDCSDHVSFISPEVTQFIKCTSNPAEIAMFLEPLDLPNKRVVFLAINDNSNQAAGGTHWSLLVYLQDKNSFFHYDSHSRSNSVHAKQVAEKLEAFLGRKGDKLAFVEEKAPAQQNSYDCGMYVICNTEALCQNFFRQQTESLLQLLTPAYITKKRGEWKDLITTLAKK

[7] = molecular target: T4, Sentrin-specific protease 8; assay type: functional; remark: listed apart in the source
[8] = Counterscreen for inhibitors of Trypanosoma brucei methionyl tRNA synthetase (MetRS): Luminescence-based cell-based high throughput dose response assay to identify compounds that are cytotoxic to Jurkat human T lymphocyte cells.; assay type: functional
[9] = molecular target: T5, Methionyl-tRNA synthetase, putative (Trypanosoma brucei brucei, UniProt Q38C91); assay type: functional, Trypanosoma brucei brucei strain 927/4 GUTat10.1
T5 sequence (Q38C91 whole entry): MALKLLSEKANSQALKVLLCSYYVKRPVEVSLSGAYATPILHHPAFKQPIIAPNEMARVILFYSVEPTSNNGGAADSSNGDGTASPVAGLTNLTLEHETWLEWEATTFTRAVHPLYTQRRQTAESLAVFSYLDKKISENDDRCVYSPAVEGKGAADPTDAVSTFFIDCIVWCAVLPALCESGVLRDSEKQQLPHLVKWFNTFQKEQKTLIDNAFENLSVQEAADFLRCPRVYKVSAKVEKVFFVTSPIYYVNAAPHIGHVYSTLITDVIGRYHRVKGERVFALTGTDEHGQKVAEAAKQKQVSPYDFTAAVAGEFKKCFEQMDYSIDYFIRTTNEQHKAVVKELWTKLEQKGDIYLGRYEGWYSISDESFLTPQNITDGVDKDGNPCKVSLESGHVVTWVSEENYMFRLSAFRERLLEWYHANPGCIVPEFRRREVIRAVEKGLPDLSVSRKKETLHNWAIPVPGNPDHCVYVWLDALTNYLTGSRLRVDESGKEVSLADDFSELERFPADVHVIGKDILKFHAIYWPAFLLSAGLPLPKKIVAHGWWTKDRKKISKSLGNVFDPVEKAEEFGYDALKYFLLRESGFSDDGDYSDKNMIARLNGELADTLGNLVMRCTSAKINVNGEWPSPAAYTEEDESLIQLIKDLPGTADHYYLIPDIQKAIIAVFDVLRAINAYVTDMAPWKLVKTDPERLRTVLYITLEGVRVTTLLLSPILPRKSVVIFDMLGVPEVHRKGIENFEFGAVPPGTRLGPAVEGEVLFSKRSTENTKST

[10] = molecular target: Induced myeloid leukemia cell differentiation protein Mcl-1 (Homo sapiens, UniProt Q07820); assay type: functional
[11] = molecular target: FAD-linked sulfhydryl oxidase ALR (Homo sapiens, UniProt P55789); assay: inhibitors of human ALR sulfhydryl oxidase, dose response, biochemical, H2O2 detection, luminescence, cherry-pick (AID 493248)
[12] = molecular target: T6, Replicative DNA helicase DnaB (Mycobacterium tuberculosis, UniProt P9WMR3); assay: DnaB intein splicing inhibitors, dose response, biochemical, cell-free fluorescence (AID 449749); assay type: functional
T6 sequence (P9WMR3 whole entry): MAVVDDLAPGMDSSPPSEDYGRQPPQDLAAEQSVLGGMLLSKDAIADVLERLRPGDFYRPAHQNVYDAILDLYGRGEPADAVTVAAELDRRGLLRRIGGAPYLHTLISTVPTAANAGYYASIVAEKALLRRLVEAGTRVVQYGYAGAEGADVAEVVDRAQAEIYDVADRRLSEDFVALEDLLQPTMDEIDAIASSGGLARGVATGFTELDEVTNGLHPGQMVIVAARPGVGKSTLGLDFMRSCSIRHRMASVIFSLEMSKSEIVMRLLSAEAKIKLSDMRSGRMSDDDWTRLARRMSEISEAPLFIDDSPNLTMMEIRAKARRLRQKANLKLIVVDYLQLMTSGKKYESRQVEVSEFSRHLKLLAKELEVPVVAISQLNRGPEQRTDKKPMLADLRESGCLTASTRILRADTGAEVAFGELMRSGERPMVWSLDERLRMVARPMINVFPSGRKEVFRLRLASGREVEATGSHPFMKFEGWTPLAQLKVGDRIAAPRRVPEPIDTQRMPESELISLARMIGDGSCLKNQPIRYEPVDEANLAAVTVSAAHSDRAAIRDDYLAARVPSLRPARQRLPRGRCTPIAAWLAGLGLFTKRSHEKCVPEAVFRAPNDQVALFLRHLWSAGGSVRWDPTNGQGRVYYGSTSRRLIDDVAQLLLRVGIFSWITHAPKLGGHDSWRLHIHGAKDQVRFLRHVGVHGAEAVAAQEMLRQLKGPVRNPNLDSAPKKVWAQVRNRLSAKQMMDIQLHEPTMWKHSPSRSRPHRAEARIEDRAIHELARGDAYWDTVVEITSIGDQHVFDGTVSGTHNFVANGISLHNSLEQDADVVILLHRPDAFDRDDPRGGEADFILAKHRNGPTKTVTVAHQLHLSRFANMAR

Protein RecA = molecular target: T7, Protein RecA (Mycobacterium tuberculosis, UniProt P9WHJ3); assay: Fluorescence Cell-Free Homogeneous Dose Retest to Identify Inhibitors of RecA-Intein Splicing Activity. [Related pubchem assays (depositor defined):AID2097, AID2223, AID489010, AID492950]; assay type: functional
T7 sequence (P9WHJ3 whole entry): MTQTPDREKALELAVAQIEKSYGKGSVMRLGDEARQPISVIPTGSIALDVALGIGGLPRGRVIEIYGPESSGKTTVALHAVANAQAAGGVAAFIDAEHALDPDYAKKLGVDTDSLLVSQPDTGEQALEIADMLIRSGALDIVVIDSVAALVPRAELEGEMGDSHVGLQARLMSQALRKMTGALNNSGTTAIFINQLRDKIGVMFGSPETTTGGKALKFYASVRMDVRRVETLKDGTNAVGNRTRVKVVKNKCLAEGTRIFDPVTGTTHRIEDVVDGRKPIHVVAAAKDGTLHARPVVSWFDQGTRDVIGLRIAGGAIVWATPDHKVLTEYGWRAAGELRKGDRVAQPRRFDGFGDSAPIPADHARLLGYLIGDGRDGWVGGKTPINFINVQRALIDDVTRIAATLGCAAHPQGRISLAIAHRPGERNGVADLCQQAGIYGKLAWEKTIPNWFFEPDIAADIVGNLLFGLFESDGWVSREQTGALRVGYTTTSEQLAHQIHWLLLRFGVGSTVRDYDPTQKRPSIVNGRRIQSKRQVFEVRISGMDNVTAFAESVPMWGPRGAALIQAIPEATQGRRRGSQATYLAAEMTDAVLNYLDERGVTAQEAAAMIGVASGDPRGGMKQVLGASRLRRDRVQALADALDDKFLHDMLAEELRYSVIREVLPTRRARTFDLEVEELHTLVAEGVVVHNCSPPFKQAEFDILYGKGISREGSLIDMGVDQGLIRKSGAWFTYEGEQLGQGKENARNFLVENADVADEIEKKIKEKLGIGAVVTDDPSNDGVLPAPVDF

[13] = Shn3 3'UTR reporter inhibitors, dose response, cell-based, Clone20 osteoblasts, firefly luciferase, cherry-picked (AID 624132); assay type: functional;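 note: firefly luciferase luminescence from reporter carrying the Shn3 3'UTR in osteoblasts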
[14] = HepG2 cell cytotoxicity, dose response, cytotoxicity control for Shn3 inhibitor project, CellTiter-Glo, cherry-picked (AID 624134); assay type: functional, cell-based
[15] = control 3'UTR Renilla luciferase suppression, dose response, counter-screen for Shn3 inhibitor project, cell-based, Clone20-Shn3RL, cherry-picked (AID 624133); assay type: functional
[16] = Fluorescence-based cell-based high throughput dose response assay for inhibitors of the interaction of nucleotide-binding oligomerization domain containing 2 (NOD2) and the receptor-interacting serine-threonine kinase 2 (RIPK2).; assay type: functional; details: Homo sapiens
Beta Lactamase = Beta Lactamase (Pseudomonas aeruginosa, UniProt Q932Y6); assay: beta-lactamase reporter inhibitor potency, dose response, artefact control for NOD2-RIPK2 interaction inhibitor project, BLA reporter cells, FRET fluorescence (AID 651552); assay type: functional, cell-based
[17] = inhibitors of PGC1a acetylation in cells, dose response, cell-based, cherry-picked samples (AID 720514); assay type: functional;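 note: potency may reflect raised or lowered acetylation signal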

Induced myeloid leukemia cell differentiation protein Mcl-1, sequence (Q07820 whole entry): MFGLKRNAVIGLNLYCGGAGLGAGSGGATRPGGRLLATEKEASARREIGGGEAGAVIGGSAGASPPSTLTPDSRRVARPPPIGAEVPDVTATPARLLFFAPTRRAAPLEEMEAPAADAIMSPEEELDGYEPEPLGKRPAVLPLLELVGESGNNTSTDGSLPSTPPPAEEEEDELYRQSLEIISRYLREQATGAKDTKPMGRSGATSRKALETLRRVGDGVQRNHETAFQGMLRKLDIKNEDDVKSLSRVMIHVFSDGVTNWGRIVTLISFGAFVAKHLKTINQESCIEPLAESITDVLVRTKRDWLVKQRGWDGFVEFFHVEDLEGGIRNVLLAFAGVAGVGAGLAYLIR
Beta Lactamase, sequence (Q932Y6 whole entry): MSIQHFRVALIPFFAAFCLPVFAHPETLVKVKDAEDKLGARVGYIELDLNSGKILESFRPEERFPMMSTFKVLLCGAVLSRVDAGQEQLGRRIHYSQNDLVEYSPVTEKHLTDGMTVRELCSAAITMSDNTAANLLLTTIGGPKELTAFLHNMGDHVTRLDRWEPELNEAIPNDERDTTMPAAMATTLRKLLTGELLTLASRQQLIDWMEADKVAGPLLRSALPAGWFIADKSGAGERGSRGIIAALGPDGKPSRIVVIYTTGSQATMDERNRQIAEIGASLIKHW
FAD-linked sulfhydryl oxidase ALR, sequence (P55789 whole entry): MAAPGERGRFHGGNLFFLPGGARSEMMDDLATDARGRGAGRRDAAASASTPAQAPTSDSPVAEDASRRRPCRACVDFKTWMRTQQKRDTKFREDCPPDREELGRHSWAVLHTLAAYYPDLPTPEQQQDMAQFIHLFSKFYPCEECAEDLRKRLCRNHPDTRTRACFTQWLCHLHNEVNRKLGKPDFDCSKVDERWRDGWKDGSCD

## Cc1cc(-c2ccccc2)nc(N/N=C/c2ccc(O)cc2O)n1
[1]
  EC50: > 300 µM (not active)
[2]
  EC50: 54 µM (active)
[3]
  AC50: 6.35 µM (active)
[4]
  CC50: 100 µM (active)
[5]
  IC50: 69.1 µM (active)

## COc1ccc(-c2[nH][nH]c(=O)c2NC(=O)c2ccc([N+](=O)[O-])cc2)cc1
[6]
  IC50: 47.2 µM (active)
[7]
  IC50: 65.5 µM (inactive)

## CCNC(=O)O/N=C1\CCCCC1c1ccc([N+](=O)[O-])cc1[N+](=O)[O-] (configuration not stated)
[6]
  IC50: 14.4 µM (active)
[7]
  IC50: 27.2 µM (active)

## COc1cc(/C=N/NC(=S)Nc2cccc(S(=O)(=O)N(C)C)c2)ccc1O
[4]
  CC50: 100 µM (active)
[5]
  IC50: 29 µM (active)

## Clc1ccccc1-c1ccc2ncnc(NCc3ccc4c(c3)OCO4)c2c1
[8]
  IC50: 83.3 µM (inactive)
[9]
  IC50: 30 µM (inactive)

## CSc1nnc(C)c(/C=C/NOCc2cccc(F)c2)n1
[6]
  IC50: 69.9 µM (inactive)
[7]
  IC50: 14 µM (active)

## CCOC(=O)CSc1nc(N)c(C(=O)Nc2ccc(N(C)C)cc2)s1
[10]
  IC50: < 0.4 µM (active)
[4]
  CC50: 100 µM (active)
[5]
  IC50: 31.7 µM (active)

## O=C(NCc1ccc2c(c1)OCO2)c1nc(S(=O)(=O)Cc2ccccc2)ncc1Cl
[11]
  AC50: 0.505 µM (active)
[12]
  AC50: 2.27 µM (active)
Protein RecA
  EC50: 4.16 µM (active)
[13]
  AC50: 6.4 µM (active)
[14]
  AC50: 40.5 µM (active)
[15]
  AC50: 21.7 µM (active)
[16]
  IC50: 4.89 µM (active)
Beta Lactamase
  IC50: 32.5 µM (inactive)
[17]
  AC50: 21.7 µM (active)
